Drawing on US10111874B2, “Combination therapies for treatment of cancer” (Araxes Pharma LLC, priority 2014, dated 2018), this text covers Binding % for 30 compounds.

The experiment addresses T1, KRAS G12C 1-169, his-tagged protein, GDP-loaded (Homo sapiens, UniProt P01116, G12C).
T1 construct: KRAS G12C 1-169, his-tagged protein, GDP-loaded
The experiment is described as follows: Biochemical assay: covalent binding to KRAS G12C analyzed by mass spectrometry. Also: test concentration or dose not given here.

The mark [1] stands for this setting: compounds 48-246, measured at 2 h.
Where [2] appears, read: compounds 247-342, measured at 30 min.

T1 sequence (P01116 1-169 isoform P01116-2 G12C): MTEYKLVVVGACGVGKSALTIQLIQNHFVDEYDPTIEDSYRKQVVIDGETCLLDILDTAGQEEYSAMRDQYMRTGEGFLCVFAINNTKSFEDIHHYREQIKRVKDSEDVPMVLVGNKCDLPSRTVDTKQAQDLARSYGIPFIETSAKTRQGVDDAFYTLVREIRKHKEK

Regarding `C=CC(=O)N1CCN(c2cnnc3cc(-c4ccccc4C(F)(F)F)c(Cl)cc23)CC1` [Compound I-225, 1-(4-(6-chloro-7-(2-(trifluoromethyl)phenyl)cinnolin-4-yl)piperazin-1-yl)prop-2-en-1-one], the Binding % entry under setting [1] was “++ (++indicates binding activity greater than 25% and up to 50%)”.
Still for that read-out and setting: then `C=CC(=O)N1CCN(c2ncnc3cc(-c4cc(NC)ccc4C)c(Cl)cc23)CC1` [Compound I-191, 1-(4-(6-chloro-7-(2-methyl-5-(methylamino)phenyl)quinazolin-4-yl)piperazin-1-yl)prop-2-en-1-one], with “+++ (+++indicates binding activity greater than 50% and up to 75%)”.
Regarding `C=CC(=O)N1CCN(c2ncnc3c(F)c(-c4c(C)ccc5[nH]nc(F)c45)c(Cl)cc23)CC1` [Compound 340, 1-(4-(6-chloro-8-fluoro-7-(3-fluoro-5-methyl-1H-indazol-4-yl)quinazolin-4-yl)piperazin-1-yl)prop-2-en-1-one], the Binding % result under setting [2] is listed as “++++ (++++indicates binding activity greater than 75%)”.
As for `C=CC(=O)N1CCN(c2ncnc3cc(-c4cc(C5(C#N)CC5)ccc4F)c(Cl)cc23)CC1` [Compound I-143, 1-(3-(4-(4-acryloylpiperazin-1-yl)-6-chloroquinazolin-7-yl)-4-fluorophenyl)cyclopropanecarbonitrile], the Binding % entry under setting [1] is “+++ (+++indicates binding activity greater than 50% and up to 75%)”.
The same measure, in the same setting: then `C=CC(=O)N1CCN(c2ncnc3cc(-c4ccccc4CO)c(Cl)cc23)CC1` [Compound I-108, 1-(4-(6-chloro-7-(2-(hydroxymethyl)phenyl)quinazolin-4-yl)piperazin-1-yl)prop-2-en-1-one], with “++ (++indicates binding activity greater than 25% and up to 50%)”.
On to `C=CC(=O)N1CCN(c2ncnc3cc(-c4ccc(Cl)cc4)c(Cl)cc23)CC1CC#N` (stereo not drawn) [Compound I-110, 2-(1-acryloyl-4-(6-chloro-7-(4-chlorophenyl)quinazolin-4-yl)piperazin-2-yl)acetonitrile], for which the Binding % entry under setting [1] is “+++ (+++indicates binding activity greater than 50% and up to 75%)”.
Take `C=CC(=O)N1CCN(c2ncnc3c(Cl)c(-c4c(O)ccc5ccccc45)c(Cl)cc23)CC1` [Compound 303, 1-(4-(6,8-dichloro-7-(2-hydroxynaphthalen-1-yl)quinazolin-4-yl)piperazin-1-yl)prop-2-en-1-one]: the Binding % entry under setting [2] is “++ (++indicates binding activity greater than 25% and up to 50%)”.
Turning to `C=CC(=O)N1CC(N2CCN(C(=O)CCc3cc(Cl)c(Cl)cc3O)CC2)C1` [II-6, 1-(3-(4-(3-(4,5-dichloro-2-hydroxyphenyl)-propanoyl)piperazin-1-yl)azetidin-1-yl)prop-2-en-1-one], the Binding % entry (determined at 24 hrs) is recorded as “+ (+indicates binding activity from 5% to 15%)”.
In the case of `C=CC(=O)N1CCN(c2ncnc3cc(-c4cc(Cl)ccc4Cl)c(Cl)cc23)CC1` [Compound I-101, 1-(4-(6-chloro-7-(2,5-dichlorophenyl)quinazolin-4-yl)piperazin-1-yl)prop-2-en-1-one], the Binding % entry under setting [1] is “+++ (+++indicates binding activity greater than 50% and up to 75%)”.
Same read-out and setting: then `C=CC(=O)N1CCN(c2ncnc3cc(-c4c(OC)ccc5ccccc45)c(Cl)cc23)CC1` [Compound I-202, 1-(4-(6-chloro-7-(2-methoxynaphthalen-1-yl)quinazolin-4-yl)piperazin-1-yl)prop-2-en-1-one], with “+++ (+++indicates binding activity greater than 50% and up to 75%)”.
As for `C/C=C/C(=O)N1CCN(c2ncnc3c(F)c(-c4cc(O)cc5ccccc45)c(Cl)cc23)CC1C` (stereo not drawn) [Compound 328, (E)-1-(4-(6-chloro-8-fluoro-7-(3-hydroxynaphthalen-1-yl)quinazolin-4-yl)-2-methylpiperazin-1-yl)but-2-en-1-one], the Binding % entry under setting [2] is given as “+ (+indicates binding activity from 5% to 25%)”.
For the compound `C=CC(=O)N1CC(N2CCN(C(=O)CNc3cc(O)c(Cl)c(Cl)c3)CC2)C1` [II-27, 1-(3-(4-(2-(3,4-dichloro-5-hydroxyphenyl-amino)acetyl)piperazin-1-yl)azetidin-1-yl)prop-2-en-1-one], the Binding % entry (determined at 24 hrs) was “++ (++indicates binding activity greater than 15% and up to 25%)”.
With `C=CC(=O)N1CCN(c2ncnc3cc(-c4cc(Cl)ccc4O)c(Cl)cc23)CC1` [Compound I-118, 1-(4-(6-chloro-7-(5-chloro-2-hydroxyphenyl)quinazolin-4-yl)piperazin-1-yl)prop-2-en-1-one], the Binding % entry under setting [1] was “+++ (+++indicates binding activity greater than 50% and up to 75%)”.
`CN(C)C/C=C/C(=O)N1CC(N2CCN(C(=O)CNc3cc(Cl)c(Cl)cc3O)CC2)C1` [II-20, (E)-1-(3-(4-((4,5-dichloro-2-hydroxyphenyl)-glycyl)piperazin-1-yl)azetidin-1-yl)-4-(dimethylamino)but-2-en-1-one]: the Binding % result (determined at 24 hrs) is “++ (++indicates binding activity greater than 15% and up to 25%)”.
For the compound `C=CC(=O)N1CCN(c2ncnc3cc(-c4ccccc4C(F)(F)F)c(C(F)(F)F)cc23)CC1` [Compound I-212, 1-(4-(6-(trifluoromethyl)-7-(2-(trifluoromethyl)phenyl)quinazolin-4-yl)piperazin-1-yl)prop-2-en-1-one], the Binding % result under setting [1] is on record as “++++ (++++indicates binding activity greater than 75%)”.
Same read-out and setting: next, `C=CC(=O)N1CCN(c2ncnc3cc(-c4ccccc4O)c(Cl)cc23)CC1C` (stereo not drawn) [Compound I-134, 1-(4-(6-chloro-7-(2-hydroxyphenyl)quinazolin-4-yl)-2-methylpiperazin-1-yl)prop-2-en-1-one]: “++ (++indicates binding activity greater than 25% and up to 50%)”.
Consider `C=CC(=O)N1CCN(c2ncnc3cc(Cl)c(C#N)cc23)CC1C#N` (stereo not drawn) [Compound I-53, 4-(4-acryloyl-3-cyanopiperazin-1-yl)-7-chloroquinazoline-6-carbonitrile], for which the Binding % result under setting [1] is “++++ (++++indicates binding activity greater than 75%)”.
Same read-out and setting: next, `C=CC(=O)N1CCN(C2=c3cc(Cl)c(-c4ccccc4F)cc3=NCN2C(N)=O)CC1` [Compound I-189, 4-(4-acryloylpiperazin-1-yl)-6-chloro-7-(2-fluorophenyl)quinazolin-3-carboxamide]: “++ (++indicates binding activity greater than 25% and up to 50%)”.
For the compound `C=CC(=O)N1CC(N2CCN(C(=O)CNc3cc(C=O)c(Cl)cc3OC)CC2)C1` [II-46, 5-(2-(4-(1-acryloylazetidin-3-yl)piperazin-1-yl)-2-oxoethylamino)-2-chloro-4-methoxybenzaldehyde], the Binding % result (determined at 24 hrs) was “+ (+indicates binding activity from 5% to 15%)”.
In the case of `C=CC(=O)N1CCN(c2ncnc3cc(-c4ccccc4)c(Cl)cc23)CC1CC#N` (stereo not drawn) [Compound I-85, 2-(1-acryloyl-4-(6-chloro-7-phenylquinazolin-4-yl)piperazin-2-yl)acetonitrile], under setting [1], the Binding % entry was “+++ (+++indicates binding activity greater than 50% and up to 75%)”.
The same measure, in the same setting: then `C=CC(=O)N1CCN(c2ncnc3cc(-c4ccc5oc(N)nc5c4)c(Cl)cc23)CC1` [Compound I-164, 1-(4-(7-(2-aminobenzo[d]oxazol-5-yl)-6-chloroquinazolin-4-yl)piperazin-1-yl)prop-2-en-1-one], with “+ (+indicates binding activity from 5% to 25%)”; and `C=CC(=O)N1CCN(c2ncnc3cc(Cl)c(-c4ccc(Cl)cc4)cc23)C[C@@H]1C(N)=O` [Compound I-64, (R)-1-acryloyl-4-(7-chloro-6-(4-chlorophenyl)quinazolin-4-yl)piperazine-2-carboxamide], with “++ (++indicates binding activity greater than 25% and up to 50%)”.
`C=CC(=O)N1CC(N2CCN(C(=O)CNc3cc(Cl)c(Cl)cc3C(N)=O)CC2)C1` [II-10, 2-(2-(4-(1-acryloylazetidin-3-yl)piperazin-1-yl)-2-oxoethylamino)-4,5-dichlorobenzamide]: for the setting “determined at 24 hrs”, the Binding % entry is “+ (+indicates binding activity from 5% to 15%)”.
For the compound `C=CC(=O)N1CCN(c2ncnc3cc(Cl)c(-c4ccc(Cl)cc4)cc23)CC1` [Compound I-4, 1-(4-(7-chloro-6-(4-chlorophenyl)quinazolin-4-yl)piperazin-1-yl)prop-2-en-1-one], the Binding % result (compounds 1-47, measured at 24 h) is on record as “++++ (++++indicates binding activity greater than 75%)”.
In the case of `C=CC(=O)N1CCN(c2ncnc3cc(-c4ccccc4Cl)c(Cl)cc23)CC1` [Compound I-72, 1-(4-(6-chloro-7-(2-chlorophenyl)quinazolin-4-yl)piperazin-1-yl)prop-2-en-1-one], the Binding % result under setting [1] was “++ (++indicates binding activity greater than 25% and up to 50%)”.
As for `C=CC(=O)N1CCN(c2ncnc3cc(-c4c(O)cccc4F)c(Cl)c(C(F)(F)F)c23)CC1` [Compound 318, 1-(4-(6-chloro-7-(2-fluoro-6-hydroxyphenyl)-5-(trifluoromethyl)quinazolin-4-yl)piperazin-1-yl)prop-2-en-1-one], the Binding % entry under setting [2] was “+ (+indicates binding activity from 5% to 25%)”.
As for `C=CC(=O)N1CCN(c2ncnc3cc(Oc4ccccc4)c(Cl)cc23)CC1` [Compound I-76, 1-(4-(6-chloro-7-phenoxyquinazolin-4-yl)piperazin-1-yl)prop-2-en-1-one], the Binding % entry under setting [1] is reported as “+ (+indicates binding activity from 5% to 25%)”.
For the compound `CN(C)C/C=C/C(=O)N1CCN(c2ncnc3c(F)c(-c4cc(O)cc5ccccc45)c(Cl)cc23)CC1` [Compound 325, (E)-1-(4-(6-chloro-8-fluoro-7-(3-hydroxynaphthalen-1-yl)quinazolin-4-yl)piperazin-1-yl)-4-(dimethylamino)but-2-en-1-one], the Binding % entry under setting [2] is “++ (++indicates binding activity greater than 25% and up to 50%)”.
Regarding `C=CC(=O)N1CCN(c2c(C#N)cnc3cc(-c4ccccc4O)c(Cl)cc23)CC1` [Compound I-182, 4-(4-acryloylpiperazin-1-yl)-6-chloro-7-(2-hydroxyphenyl)quinoline-3-carbonitrile], the Binding % entry under setting [1] was “+++ (+++indicates binding activity greater than 50% and up to 75%)”.
Same read-out and setting: next, `C=CC(=O)N1CCN(c2ncnc3cc(-c4c(O)ccc(F)c4F)c(Cl)cc23)CC1` [Compound I-203, 1-(4-(6-chloro-7-(2,3-difluoro-6-hydroxyphenyl)quinazolin-4-yl)piperazin-1-yl)prop-2-en-1-one]: “++++ (++++indicates binding activity greater than 75%)”.
